In patent US11330820B2, “Pesticidally active mixtures” (BASF Agrochemical Products B.V., priority 2016, dated 2022):
“And” between values parts separate entries of the source, which are not always exact repeats. Equal values may be shown once.

Tests used:
Format in all cases: in vivo
[1] = test system: tobacco budworm (Heliothis virescens); assay: Control of tobacco budworm, insect diet with eggs (B.4)
Method: For evaluating control of tobacco budworm (Heliothis virescens) the test unit consisted of 96-well-microtiter plates containing an insect diet and 15-25 H. virescens eggs.
(§1) The compounds or mixtures were formulated using a solution containing 75% by weight water and 25% by weight DMSO. Different concentrations of formulated compounds or mixtures were sprayed onto the insect diet at 10 μl, using a custom built micro atomizer, at two replications.
(§2) For experimental mixtures in these tests identical volumes of both mixing partners at the desired concentrations respectively, were mixed together.
After application, microtiter plates were incubated at 28+1° C., 80+5% RH for 5 days. Egg and larval mortality was then visually assessed.

[2] = test system: green peach aphid (Myzus persicae); assay: Control of green peach aphid through systemic means, artificial diet under membrane (B.2)
From the text: For evaluating control of green peach aphid (Myzus persicae) through systemic means the test unit consisted of 96-well-microtiter plates containing liquid artificial diet under an artificial membrane.
The compounds or mixtures were formulated using a solution containing 75% by weight water and 25% by weight DMSO. Different concentrations of formulated compounds or mixtures were pipetted into the aphid diet, using a custom built pipetter, at two replications.
For experimental mixtures in these tests identical volumes of both mixing partners at the desired concentrations respectively were mixed together.
After application, 5-8 adult aphids were placed on the artificial membrane inside the microtiter plate wells. The aphids were then allowed to suck on the treated aphid diet and incubated at 23±1° C., 50±5% RH for 3 days. Aphid mortality and fecundity was then visually assessed.

[3] = test system: vetch aphid (Megoura viciae); assay: Control of vetch aphid on broad bean leaf disks, contact or systemic (B.1)
Method: For evaluating control of vetch aphid (Megoura viciae) through contact or systemic means the test unit consisted of 24-well-microtiter plates containing broad bean leaf disks. The compounds or mixtures were formulated using a solution containing 75% by weight water and 25% by weight DMSO. Different concentrations of formulated compounds or mixtures were sprayed onto the leaf disks at 2.5 μl, using a custom built micro atomizer, at two replications.
as §2
After application, the leaf disks were air-dried and 5-8 adult aphids placed on the leaf disks inside the microtiter plate wells. The aphids were then allowed to suck on the treated leaf disks and incubated at 23+1° C., 50+5% RH for 5 days. Aphid mortality and fecundity was then visually assessed.

[4] = test system: boll weevil (Anthonomus grandis); assay: Control of boll weevil, insect diet with eggs (B.3)
Method: For evaluating control of boll weevil (Anthonomus grandis) the test unit consisted of 24-well-microtiter plates containing an insect diet and 20-30 A. grandis eggs.
as §1, with “20” for “10”, “replications. For experimental mixtures in these tests identical volumes of both mixing partners at the desired concentrations respectively, were mixed together.” for “replications.”
After application, microtiter plates were incubated at 23±1° C., 50±5% RH for 5 days. Egg and larval mortality was then visually assessed.

[5] = test system: Greenhouse Whitefly (Trialeurodes vaporariorum); assay: Control of greenhouse whitefly, egg plant leaf disk with white fly eggs (B.5)
Method: For evaluating control of Greenhouse Whitefly (Trialeurodes vaporariorum) the test unit consisted of 96-well-microtiter plates containing a leaf disk of egg plant leaf disk with white fly eggs. The compounds or mixtures were formulated using a solution containing 75% by weight water and 25% by weight DMSO. Different concentrations of formulated compounds or mixtures were sprayed onto the insect diet at 2.5 μl, using a custom built micro atomizer, at two replications. For experimental mixtures in these tests identical volumes of both mixing partners at the desired concentrations respectively, were mixed together.
After application, microtiter plates were incubated at 23±1° C., 65±5% RH for 6 days. Mortality of hatched crawlers was then visually assessed.

[6] = 0.8 ppm, aphid mortality and fecundity after 5 days

## CCN1OC[C@@H](NC(=O)c2ccc(C3=NOC(c4cc(Cl)cc(Cl)c4)(C(F)(F)F)C3)cc2C)C1=O (stereo partly drawn) [II.4-1, 4-[5-(3,5-dichlorophenyl)-5-(trifluoromethyl)-4H-isoxazol-3-yl]-N-[(4R)-2-ethyl-3-oxo-isoxazolidin-4-yl]-2-methyl-benzamide]
[1]; 0.08 ppm, egg and larval mortality after 5 days
  Average Control %: 0%
[2]; 2 ppm, aphid mortality and fecundity after 3 days
  Average Control %: 0%

## CCS(=O)(=O)c1cccnc1-c1nc2cc(C(F)(F)F)cnc2n1C [II.3-1, 2-(3-ethylsulfonyl-2-pyridyl)-3-methyl-6-(trifluoromethyl)imidazo[4,5-b]pyridine]
[3]; 10 ppm, after 5 days
  Average Control %: 50%
[4]; 50 ppm, egg and larval mortality after 5 days
  Average Control %: 25%
[2]; 10 ppm, after 3 days
  Average Control %: 37.5%
[5]; 2 + 0 ppm, mortality of hatched crawlers after 6 days
  Average Control %: 25%

## Cn1nc(C(F)(F)C(F)(F)F)c(C(F)(F)F)c1C(=O)Nc1ccc(Cl)c(C(=O)NCc2ccccc2)c1 [II.1, N-[4-Chloro-3-[[(phenylmethyl)amino]carbonyl]phenyl]-1-methyl-3-(1,1,2,2,2-pentafluoroethyl)-4-(trifluoromethyl)-1H-pyrazole-5-carboxamide]
[3]; [6]
  Average Control %: 0%

## CN(C(=O)c1ccccc1)c1cccc(C(=O)Nc2c(Br)cc(C(F)(C(F)(F)F)C(F)(F)F)cc2C(F)(F)F)c1F [compound a), broflanilide]
[3]; 0.08 ppm, after 5 days
  Average Control %: 0%
[3]; [6]
  Average Control %: 50% and 25%
[4]; 0.08 ppm, after 5 days
  Average Control %: 25%
[1]; 0.8 ppm, after 5 days
  Average Control %: 0%
[2]; 0.08 ppm, after 3 days
  Average Control %: 0%
[2]; 0.8 ppm, after 3 days
  Average Control %: 25%
[5]; 0 + 0.4 ppm, after 6 days
  Average Control %: 0%
